Consider one compound from article PMC3225327 (Journal of Biomedical Science, 2011).

In one assay the test system is PDE2. The experiment in a line: Inhibition of PDE2 activity, two-step procedure. The assay is classed as biochemical. Conditions: homogenate of guinea pig lungs or hearts. The protocol: (§1) Activities of PDE1~5 in the homogenate of guinea pig lungs or hearts were measured by a two-step procedure according to the previous method, using cAMP with [^3H]-cAMP or cGMP with [^3H]-cGMP as substrates. […] The reagents and homogenate were mixed on ice, and the reaction was initiated by transferring the mixture to a water bath at 37°C. Following a 30-min incubation, the reaction was stopped by transferring the reaction vessel to a bath of boiling water for 3 min. After cooling on ice, 20 μl of a 1 mg/ml solution of Crotalus atrox snake venom was added to the reaction mixture, and the mixture was incubated at 37°C for 10 min. Unreacted [^3H]-cAMP or [^3H]-cGMP was removed by the addition of 500 μl of a 1-in-1 Tris-HCl (40 mM) buffer suspension of Dowex resin (1 × 8-200) with incubation on ice for 30 min. Each tube was then centrifuged at 3700 g for 2 min, and 150 μl of the supernatant was removed for liquid scintillation counting. […] The total protein in each fraction used was assayed according to a previous method. PDE activities are reported as nmol/mg/min.

The subject of the next assay is PDE3. The experiment in a line: Inhibition of PDE3 activity, two-step procedure. The assay is classed as biochemical. The following applies: homogenate of guinea pig lungs or hearts. The protocol: as §1
In assay [1] the test system is high-affinity rolipram-binding sites (HARBSs) of guinea pig brain cell membranes. Kind of assay: Displacement of 2 nM [3H]-rolipram from high-affinity rolipram-binding sites (PDE4H). The protocol: When the above-mentioned guinea pigs were sacrificed, the whole brains were removed and homogenized with a glass/Teflon homogenizer (Glas-Col, Terre Haute, IN, USA) in 10 volumes of cold medium (pH 6.5) containing 20 mM Bis-Tris, 2 mM benzamidine, 2 mM EDTA, 50 mM sodium chloride, 0.1 mM PMSF, and 1 mM dithiothreitol. At 4°C, the homogenate was centrifuged at 170 g for 5 min to remove connective tissues and blood vessels. The suspended homogenate was then re-centrifuged at 40,000 g for 30 min to separate the cytosolic and particulate portions. The particulate portion was re-suspended in a suspension at a concentration of 400 mg/ml (wet weight/volume), after washing three times with homogenizing buffer. The particulate portion mainly consisted of cell membranes. […] Briefly, the reaction buffer consisted of 50 mM Tris-HCl and 5 mM MgCl2 (pH 7.5). […] After 1 h, the reaction was terminated by moving the reaction vessel into crushed ice. Then the reaction mixture was transferred onto Whatman GF/B glass-fiber filters, which were soaked in a 0.3% polyethyleneimine solution in a mini-funnel.

The test system of assay [2] is inflammatory cells in bronchoalveolar lavage fluid. Kind of assay: Inflammatory cell counts in BALF of sensitized and challenged mice. The assay is classed as in vivo, BABL/c mice. Conditions: 3~30 μmol/kg p.o. The protocol:
(§2) According to the schedule (Figure 1), ten female BABL/c mice in each group were sensitized by an intraperitoneal (i.p.) injection of 20 μg of OVA emulsified in 2.25 mg of an aluminum hydroxide gel, prepared from aluminum sulfate hexadecahydrate, in a total volume of 100 μl on days 0 and 14. On day 21, these mice were injected with (i.p.) 100 μl of a mixture of 1% OVA and Freund's complete adjuvant (1:1). Mice were challenged via the airway using 1% OVA in saline for 30 min on days 28, 29, and 30 by ultrasonic nebulization. After the last of OVA challenges, AHR was assessed on day 32 (48 h after 1% OVA provocation) in each group. […] For comparison, sham-treated mice were challenged with saline instead of 1% OVA (non-challenged). […] AHR was assessed using two methods: (1) in anesthetized ventilated mice, AHR was assessed as previously described by measuring changes in the airway resistance (RL, cmH2O/ml/sec) and lung dynamic compliance (Cdyn, ml/cmH2O) after challenge with aerosolized methacholine (MCh, 0.78~25 mg/ml) using the FlexiVent system (SCIREQ, Montreal, Quebec, Canada). Anesthetized (urethane 600 mg/kg and chloralose 120 mg/kg, i.p.), tracheostomized (stainless-steel cannula, 18 G) mice were mechanically ventilated (at 150 breaths/min, with a tidal volume of 10 ml/kg, positive end-expiratory pressure of 3 cmH2O). (2) in unrestrained animals by barometric plethysmography using a whole-body plethysmograph (WBP) and analyzed using software of Life Science Suite P3 Analysis Modules (Gould, LDS Test and Measurement LLC, Valley View, OH, USA). Mice were placed into the main chamber of the WBP, and the baseline enhanced pause (Penh) value was determined. […] Twenty-four hours after Penh determination, these mice were anesthetized with pentobarbital (50 mg/kg, i.p.), and the lungs were lavaged via a tracheal tube with PBS (1 × 1.0 ml, 37°C). After lavage, blood was collected from the jugular vein and allowed to sit so that it would coagulate. The collected bronchoalveolar lavage fluid (BALF) and coagulated blood were respectively centrifuged at 630 g for 7 min and at 3700 g for 10 min at 4°C. After centrifugation, the BALF and serum supernatants were stored at -20°C until determination of cytokines, including interleukin (IL)-2, IL-4, IL-5, tumor necrosis factor (TNF)-α, and interferon (IFN)-γ by flow cytometric methods using mouse T helper (Th)1/Th2 cytokine CBA kits, and of total immunoglobulin (Ig)E or IgG2a using ELISA kits (Pharmingen, San Diego, CA, USA) according to the respective recommendations of the manufacturers. OVA-specific IgE was measured as described previously. Wells were coated with 100 μl of OVA (20 μg/ml) instead of the capture antibody. Levels are expressed in arbitrary units, where 1 arbitrary unit equals the optical density of the sample divided by the optical density of unchallenged mouse serum or BALF (standard). The BALF pellet was resuspended in ACK lysing buffer (1.658 g NH4Cl, 0.2 g KHCO3 and 1.44 mg EDTA in 200 ml of water) to lyse the residual erythrocytes in each sample. The number of inflammatory cells was counted using a hemocytometer (Hausser Scientific, Horsham, PA, USA). Cytospun slides were stained and differentiated in a blinded fashion by counting at least 100 cells under light microscopy. All undetectable data (< 1 pg/ml) of cytokines were taken as 0 pg/ml.

The test system of assay [3] is cytokines in bronchoalveolar lavage fluid. Kind of assay: Cytokine levels in BALF of sensitized and challenged mice (CBA kits). The assay is classed as in vivo, BABL/c mice. As to the method:
as §2

Molecules are shown by their SMILES. “Also recorded” adds a separate entry of the source.

With `COc1cc(O)c2c(c1)O[C@H](c1ccc(OC)c(OC)c1)CC2=O` [HDME, hesperetin-7,3'-O-dimethylether], the IC50 (commonly the point on the concentration scale where inhibition reaches its midpoint) in the assay with PDE2 was > 100 µM. This compound yielded a half-inhibitory concentration (IC50) in the assay on PDE3 of 24.6 ± 3.5 µM. In addition, in assay [1] (2 nM [3H]-rolipram, 30°C, 1 h, read-out: EC50 (PDE4H) for displacing [3H]-rolipram binding), the EC50 (in general, the concentration giving half of the maximal effect) is 107 ± 39.5 µM. In assay [1] (EC50 of [3H]-rolipram displacement / IC50 of PDE4 inhibition), the “PDE4H/PDE4L ratio (therapeutic ratio)” value worked out at 35.5. In addition, in assay [2], the “effect on increase in number of eosinophils in BALF” value was “significantly suppressed; also recorded: abolished”, the “effect on increase in number of lymphocytes in BALF” value is on record as “significantly suppressed”, the “effect on increase in number of macrophages in BALF” value is “significantly suppressed” and the “effect on increase in number of neutrophils in BALF” value is given as “significantly suppressed”. Besides, in assay [2], the “effect on increase in number of total inflammatory cells in BALF” value is “significantly suppressed”. Moreover, the “effect on level of IFN-γ in BALF” value in assay [3] (30 μmol/kg p.o.) is recorded as “enhanced”. Besides, in assay [3] (3~30 μmol/kg p.o.), the “effect on increase in level of IL-2 in BALF” value was “significantly suppressed”, the “effect on increase in level of IL-4 in BALF” value is listed as “significantly suppressed”, the “effect on increase in level of IL-5 in BALF” value is recorded as “significantly suppressed” and the “effect on increase in level of TNF-α in BALF” value is listed as “significantly suppressed”.
